US10577365B2, “Derivatives of quinoline as inhibitors of DYRK1A and/or DYRK1B kinases” (Felicitex Therapeutics, Inc., priority 2016, dated 2020)
Counter-ions that a name gives are not always drawn. Like-named read-outs stand apart in the source and are kept apart here.

Legend:
DYRK1B = molecular target: T1, DYRK1B (Homo sapiens, UniProt Q9Y463); test: DYRK1B in vitro kinase assay (ADP-Glo); assay type: biochemical
T1 construct: purchased Carna Bioscence (Carna Biosciences) 04-131
Method: The compounds of the present invention were tested for their inhibitory activity against DYRK1A and DYRK1B kinases once or several times. When tested more than once, the data are reported herein as average value, wherein the average value, also referred to as the mean value, represents the sum of obtained values divided by the number of times tested. DYRK-inhibitory activity of the compounds of the present invention was tested using the ADP-Glo™ assay as described in the following paragraphs. The procedure for determining the IC50 values with the ADP-Glo™ assay in in vitro kinase assays consists of two parts: […] Kinase reaction performed under optimized conditions; 2. Detection of ADP as a product of the reaction using ADP-Glo™ system (Promega). The tested compounds indicated in Table 5 below were dissolved in DMSO, then transferred to the V-bottom PP plate to perform nine serial dilutions (in order to obtain dose-response curves) in 25% DMSO, as indicated in Table 5 below. The optimized conditions for performing DYRK1B in vitro kinase assay were as follows: [table] For compound testing, the following protocol was used: two mixes were prepared on ice, Mix 1 containing substrate, ATP and reaction buffer and Mix 2 containing reaction buffer and the kinase. 15 μL per well of Mix 1 was transferred to wells of a 96-well plate. […] Total reaction volume was 30 μL per well. The experiment was performed in duplicate for each data point being examined. Dose response curve for the positive control was carried out on each assay plate by adding the reference inhibitory compound staurosporine. For each test, three controls were also included: (i) 30 μL of the reaction mixture containing: reaction buffer, ATP, kinase, DMSO without substrate (quasi-positive control); (ii) 30 μL of the reaction mixture containing reaction buffer, substrate, ATP, DMSO without kinase (background control); (iii) 30 μL of the reaction mixture containing reaction buffer, substrate, kinase, ATP, DMSO (vehicle control). Final concentration of DMSO in the reaction was 2%. To detect the ADP amount produced during the kinase reaction, the commercially available kit ADP-Glo™ Kinase Assay (Promega, cat. No # V9103) was used. The protocol used for the detection was based on the Technical Bulletin of the ADP-Glo™ Kinase Assay (Promega) and was adapted to 96-well plate containing 30 μL reaction mixture as explained below. 30 μL of ADP-Glo™ Reagent was added to each well of a 96 well plate containing 30 μL of reaction mixture to terminate the kinase reaction and deplete the remaining ATP. The plate was incubated for 60 minutes on a shaker at rt. 60 μL of Kinase Detection Solution was then added to each well of 96-well plate containing 60 μL of the solution to convert ADP to ATP and to allow the newly synthesized ATP to be measured using a luciferase/luciferin reaction (ratio of kinase reaction volume to ADP Glo™ Reagent volume to Kinase Detection Solution volume was maintained at 1:1:2). The plate was incubated for 40 minutes on a shaker at rt, protected from light. Luminescence was measured in the plate reader, wherein the luminescent signal is proportional to the ADP concentration produced and thus correlates with kinase activity. After data normalization to controls (complete reaction mix and no-substrate control) and transforming X values (test compound concentrations) using: X=log(X), IC50 values were determined, using the GraphPad Prism 6.0 [log(agonist) vs. normalized response—Variable slope].

DYRK1A = molecular target: T2, DYRK1A (Homo sapiens, UniProt Q13627); test: DYRK1A in vitro kinase assay (ADP-Glo); assay type: biochemical; conditions: ATP 70 μM (Km), substrate 3 μM, enzyme 2 nM or 0.7 nM, 30 min, rt
T2 construct: purchased Carna Bioscence (Carna Biosciences) 04-130
Method: The compounds of the present invention were tested for their inhibitory activity against DYRK1A and DYRK1B kinases once or several times. When tested more than once, the data are reported herein as average value, wherein the average value, also referred to as the mean value, represents the sum of obtained values divided by the number of times tested.
DYRK-inhibitory activity of the compounds of the present invention was tested using the ADP-Glo™ assay as described in the following paragraphs. The procedure for determining the IC50 values with the ADP-Glo™ assay in in vitro kinase assays consists of two parts:
1. Kinase reaction performed under optimized conditions;
2. Detection of ADP as a product of the reaction using ADP-Glo™ system (Promega).
The tested compounds indicated in Table 5 below were dissolved in DMSO, then transferred to the V-bottom PP plate to perform nine serial dilutions (in order to obtain dose-response curves) in 25% DMSO, as indicated in Table 5 below.
The optimized conditions for performing DYRK1A in vitro kinase assay were as follows:
For compound testing, the following protocol was used: two mixes were prepared on ice, Mix 1 containing substrate, ATP and reaction buffer and Mix 2 containing reaction buffer and the kinase. 15 μL per well of Mix 1 was transferred to wells of a 96-well plate. Next, 2.5 μL of the pre-diluted compound to be tested was added to Mix 1, followed by the addition of 12.5 μL of Mix 2. Total reaction volume was 30 μL per well. The experiment was performed in duplicate for each data point being examined. Dose response curve for the positive control was carried out on each assay plate by adding the reference inhibitory compound staurosporine. For each test, three controls were also included: (i) 30 μL of the reaction mixture containing: reaction buffer, ATP, kinase, DMSO without substrate (quasi-positive control); (ii) 30 μL of the reaction mixture containing reaction buffer, substrate, ATP, DMSO without kinase (background control); (iii) 30 μL of the reaction mixture containing reaction buffer, substrate, kinase, ATP, DMSO (vehicle control). Final concentration of DMSO in the reaction was 2%. To detect the ADP amount produced during the kinase reaction, the commercially available kit ADP-Glo™ Kinase Assay (Promega, cat. No # V9103) was used. The protocol used for the detection was based on the Technical Bulletin of the ADP-Glo™ Kinase Assay (Promega) and was adapted to 96-well plate containing 30 μL reaction mixture as explained below.
30 μL of ADP-Glo™ Reagent was added to each well of a 96 well plate containing 30 μL of reaction mixture to terminate the kinase reaction and deplete the remaining ATP. The plate was incubated for 60 minutes on a shaker at rt. 60 μL of Kinase Detection Solution was then added to each well of 96-well plate containing 60 μL of the solution to convert ADP to ATP and to allow the newly synthesized ATP to be measured using a luciferase/luciferin reaction (ratio of kinase reaction volume to ADP Glo™ Reagent volume to Kinase Detection Solution volume was maintained at 1:1:2). The plate was incubated for 40 minutes on a shaker at rt, protected from light. Luminescence was measured in the plate reader, wherein the luminescent signal is proportional to the ADP concentration produced and thus correlates with kinase activity.
After data normalization to controls (complete reaction mix and no-substrate control) and transforming X values (test compound concentrations) using: X=log(X), IC50 values were determined, using the GraphPad Prism 6.0 [log(agonist) vs. normalized response—Variable slope].

[1] = ADP-Glo assay, ATP 15 μM (Km), substrate 7 μM, enzyme 1 nM or 0.3 nM, 1 h, rt, read-out: DYRK1B IC50

T1 sequence (Q9Y463 whole entry): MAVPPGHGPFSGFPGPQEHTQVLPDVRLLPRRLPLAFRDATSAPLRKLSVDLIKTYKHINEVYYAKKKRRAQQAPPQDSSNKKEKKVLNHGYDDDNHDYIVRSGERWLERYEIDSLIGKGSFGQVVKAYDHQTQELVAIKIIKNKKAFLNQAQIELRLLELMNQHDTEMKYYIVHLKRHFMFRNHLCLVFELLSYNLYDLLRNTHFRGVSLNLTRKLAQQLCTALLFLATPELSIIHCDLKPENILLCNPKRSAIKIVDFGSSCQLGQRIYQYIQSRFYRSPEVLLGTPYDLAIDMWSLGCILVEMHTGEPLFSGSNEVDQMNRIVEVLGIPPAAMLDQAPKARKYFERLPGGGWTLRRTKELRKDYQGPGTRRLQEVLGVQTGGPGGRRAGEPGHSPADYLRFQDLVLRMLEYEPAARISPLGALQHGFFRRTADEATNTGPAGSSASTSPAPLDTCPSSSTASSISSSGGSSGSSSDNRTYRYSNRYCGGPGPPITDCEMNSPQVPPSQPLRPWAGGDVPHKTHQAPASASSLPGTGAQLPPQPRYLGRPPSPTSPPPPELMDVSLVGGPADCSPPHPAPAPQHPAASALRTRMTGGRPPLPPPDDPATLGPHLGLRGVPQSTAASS

SMILES	IC50 (DYRK1B; [1])	IC50 (DYRK1A)	IC50 (DYRK1B)
C=CC1CN2CCC1CC2[C@H](O)c1ccnc2ccc(-c3c[nH]c4ncccc34)cc12 (stereo in doubt) [Example 9, {5-Ethenyl-1-azabicyclo[2.2.2]octan-2-yl}(6-{1H-pyrrolo[2,3-b]pyridin-3-yl}quinolin-4-yl)methanol]	< 0.01 µM	< 0.01 µM	–
Clc1ccnc2ccc(-c3c[nH]c4ncccc34)cc12 [Example 1, 4-Chloro-6-{1H-pyrrolo[2,3-b]pyridin-3-yl}quinoline]	–	0.01 to 0.1 µM	–
c1cnc2ccc(-c3c[nH]c4ncccc34)cc2c1 [Example 2, 6-{1H-Pyrrolo[2,3-b]pyridin-3-yl}quinoline]	< 0.01 µM	< 0.01 µM	–
N[C@H]1CCCN(c2ccnc3ccc(-c4c[nH]c5ncccc45)cc23)C1 [Example 3, (3S)-1-(6-{1H-Pyrrolo[2,3-b]pyridin-3-yl}quinolin-4-yl)piperidin-3-amine]	< 0.01 µM	< 0.01 µM	–
N[C@H]1CC[C@H](Nc2ccnc3ccc(-c4c[nH]c5ncccc45)cc23)CC1 [Example 4, trans-1-N-(6-{1H-Pyrrolo[2,3-b]pyridin-3-yl}quinolin-4-yl)cyclohexane-1,4-diamine]	–	> 0.1 µM	–
N[C@H]1CCN(c2ccnc3ccc(-c4c[nH]c5ncccc45)cc23)C1 [Example 5, (3S)-1-(6-{1H-Pyrrolo[2,3-b]pyridin-3-yl}quinolin-4-yl)pyrrolidin-3-amine]	–	< 0.01 µM	–
c1cncc(-c2ccnc3ccc(-c4c[nH]c5ncccc45)cc23)c1 [Example 6, 4-(Pyridin-3-yl)-6-{1H-pyrrolo[2,3-b]pyridin-3-yl}quinoline]	< 0.01 µM	< 0.01 µM	–
c1cnc2[nH]cc(-c3ccc4nccc(-c5ccncc5)c4c3)c2c1 [Example 7, 4-(Pyridin-4-yl)-6-{1H-pyrrolo[2,3-b]pyridin-3-yl}quinoline]	< 0.01 µM	< 0.01 µM	–
c1ccc(-c2ccnc3ccc(-c4c[nH]c5ncccc45)cc23)cc1 [Example 8, 4-Phenyl-6-{1H-pyrrolo[2,3-b]pyridin-3-yl}quinoline]	< 0.01 µM	< 0.01 µM	–
CN1CCC(Nc2ccnc3ccc(-c4c[nH]c5ncccc45)cc23)CC1 [Example 10, N-(1-Methylpiperidin-4-yl)-6-{1H-pyrrolo[2,3-b]pyridin-3-yl}quinolin-4-amine]	0.01 to 0.1 µM	–	–
Clc1cc(-c2c[nH]c3ncccc23)cc2cccnc12 [Example 11, 8-Chloro-6-{1H-pyrrolo[2,3-b]pyridin-3-yl}quinoline hydrochloride]	< 0.01 µM	< 0.01 µM	–
Cc1cc(-c2c[nH]c3ncccc23)cc2cccnc12 [Example 12, 8-Methyl-6-{1H-pyrrolo[2,3-b]pyridin-3-yl}quinoline hydrochloride]	–	–	0.01 to 0.1 µM
Fc1cc(-c2c[nH]c3ncccc23)cc2cccnc12 [Example 13, 8-Fluoro-6-{1H-pyrrolo[2,3-b]pyridin-3-yl}quinoline]	< 0.01 µM	< 0.01 µM	–
FC(F)(F)Oc1cc(-c2c[nH]c3ncccc23)cc2cccnc12 [Example 14, 6-{1H-Pyrrolo[2,3-b]pyridin-3-yl}-8-(trifluoromethoxy)quinoline]	0.01 to 0.1 µM	> 0.1 µM	–
COc1cc(-c2c[nH]c3ncccc23)cc2cccnc12 [Example 15, 8-Methoxy-6-{1H-pyrrolo[2,3-b]pyridin-3-yl}quinoline]	0.01 to 0.1 µM	–	–
c1cnc2[nH]cc(-c3ccc4ncc(NCc5ccoc5)cc4c3)c2c1 [Example 16, N-(Furan-3-ylmethyl)-6-{1H-pyrrolo[2,3-b]pyridin-3-yl}quinolin-3-amine]	< 0.01 µM	< 0.01 µM	–
Cc1cc(-c2c[nH]c3ncccc23)cc2c(-c3ccccc3)ccnc12 [Example 17, 8-Methyl-4-phenyl-6-{1H-pyrrolo[2,3-b]pyridin-3-yl}quinoline]	> 0.1 µM	> 0.1 µM	–
Cc1cc(-c2c[nH]c3ncccc23)cc2c(-c3cccnc3)ccnc12 [Example 18, 8-Methyl-4-(pyridin-3-yl)-6-{1H-pyrrolo[2,3-b]pyridin-3-yl}quinoline]	0.01 to 0.1 µM	–	–
Fc1cc(-c2c[nH]c3ncccc23)cc2c(-c3cccnc3)ccnc12 [Example 19, 8-Fluoro-4-(pyridin-3-yl)-6-{1H-pyrrolo[2,3-b]pyridin-3-yl}quinoline]	< 0.01 µM	< 0.01 µM	–
C=CCN(C)C(=O)c1cnc2[nH]cc(-c3ccc4nccc(Cl)c4c3)c2c1 [Example 20, 3-(4-Chloroquinolin-6-yl)-N-methyl-N-(prop-2-en-1-yl)-1H-pyrrolo[2,3-b]pyridine-5-carboxamide]	< 0.01 µM	0.01 to 0.1 µM	–
CNC(=O)c1cnc2[nH]cc(-c3cc(OC)c4ncccc4c3)c2c1 [Example 29, 3-(8-Methoxyquinolin-6-yl)-N-methyl-1H-pyrrolo[2,3-b]pyridine-5-carboxamide]	0.01 to 0.1 µM	–	–
CNC(=O)c1cnc2[nH]cc(-c3cc(C)c4nccc(-c5cccnc5)c4c3)c2c1 [Example 42, N-Methyl-3-[8-methyl-4-(pyridin-3-yl)quinolin-6-yl]-1H-pyrrolo[2,3-b]pyridine-5-carboxamide]	0.01 to 0.1 µM	–	–
CN1CCC(Nc2c(C#N)cnc3ccc(-c4c[nH]c5ncccc45)cc23)CC1 [Example 64, 4-[(1-Methylpiperidin-4-yl)amino]-6-{1H-pyrrolo[2,3-b]pyridin-3-yl}quinoline-3-carbonitrile]	0.01 to 0.1 µM	–	–
